Columns and labels:
[1] = logP determination by HPLC (EEC Directive 79/831 Annex V. A8); assay type: physicochemical; conditions: acetonitrile/0.1% aqueous phosphoric acid, gradient method, acetonitrile/0.1% strength aqueous phosphoric acid
Procedure: The logP values were determined in accordance with EEC Directive 79/831 Annex V. A8 by HPLC (gradient method, acetonitrile/0.1% strength aqueous phosphoric acid)

[2] = system: Pyricularia oryzae; assay type: in vivo; conditions: rice, protective, 750 g/ha, 4 days after inoculation; 0% = control, 100% = no infestation
[3] = system: Phytophthora infestans; assay type: in vivo; conditions: tomato, protective, 100 g/ha, 3 days after inoculation; 0% = control, 100% = no infestation
[4] = system: Plasmopara viticola; test: Plasmopara test (vine)/protective; assay type: in vivo; conditions: protective, 100 g/ha, 6 days after inoculation, 0% = control, 100% = no infestation
Procedure: Plasmopara test (vine)/protective
Solvent: 47 parts by weight of acetone
Emulsifier: 3 parts by weight of alkylaryl polyglycol ether
(§1) To prepare an appropriate formulation of the active compound, 1 part by weight of active compound is mixed with the stated amounts of solvent and emulsifier, and the concentrate is diluted with water to the desired concentration.
To test for protective activity, young plants are sprayed with the formulation of the active compound in the stated application amount. After the spray coating has dried on, the plants are inoculated with an aqueous spore suspension of Plasmopara viticola and then remain in an incubation cabin at about 20° C. and 100% relative atmospheric humidity for 1 day. The plants are then placed in a greenhouse at about 21° C. and about 90% relative atmospheric humidity for 5 days. The plants are then moistened and placed in an incubation cabin for 1 day.
Evaluation is carried out 6 days after the inoculation. In this evaluation, 0% means a degree of action which corresponds to that of the control, while a degree of action of 100% means that no infestation is observed.

[5] = system: Leptosphaeria nodorum; test: Leptosphaeria nodorum test (wheat)/curative; assay type: in vivo; conditions: curative, 250 g/ha, 10 days after inoculation, 0% = control, 100% = no infestation
Procedure: Leptosphaeria nodorum test (wheat)/curative
Solvent: 10 parts by weight of N-methyl-pyrrolidone
(§2) Emulsifier: 0.6 part by weight of alkylaryl polyglycol ether
as §1
(§3) To test for curative activity, young plants are sprayed with a conidia suspension of Leptosphaeria nodorum. The plants remain in an incubation cabin at 20° C. and 100% relative atmospheric humidity for 48 hours and are then sprayed with the formulation of the active compound in the stated application amount.
The plants are placed in a greenhouse at a temperature of about 15° C. and a relative atmospheric humidity of about 80%.
(§4) Evaluation is carried out 10 days after the inoculation. In this evaluation, 0% means a degree of action which corresponds to that of the control, while a degree of action of 100% means that no infestation is observed.

[6] = system: Leptosphaeria nodorum; test: Leptosphaeria nodorum test (wheat)/protective; assay type: in vivo; conditions: protective, 250 g/ha, 10 days after inoculation, 0% = control, 100% = no infestation
Procedure: Leptosphaeria nodorum test (wheat)/protective
(§5) Solvent: 25 parts by weight of N,N-dimethylacetamide
as §2
To test for appropriate formulation of the active compound, 1 part by weight of active compound is mixed with the stated amounts of solvent and emulsifier, and the concentrate is diluted with water to the desired concentration.
(§6) To test for protective activity, young plants are sprayed with the formulation of the active compound in the stated application amount. After the spray coating has dried on, the plants are sprayed with a spore suspension of Leptosphaeria nodorum. The plants remain in an incubation cabin at 20° C. and 100% relative atmospheric humidity for 48 hours.
The plants are placed in a greenhouse at a temperature of about 15° C. and a relative atmospheric humidity of 80%.
as §4

[7] = system: Puccinia; test: Puccinia test (wheat)/protective; assay type: in vivo; conditions: protective, 250 g/ha, 10 days after inoculation, 0% = control, 100% = no infestation
Procedure: Puccinia test (wheat)/protective
as §5, §2, §1
as §6, with “the conidia” for “a spore”, “Puccinia.” for “Leptosphaeria nodorum.”
The plants are then placed in a greenhouse at a temperature of about 20° C. and a relative atmospheric humidity of 80% in order to promote the development of rust pustules.
as §4

[8] = system: Puccinia recondite; test: Puccinia test (wheat)/curative; assay type: in vivo; conditions: curative, 250 g/ha, 10 days after inoculation, 0% = control, 100% = no infestation
Procedure: Puccinia test (wheat)/curative
Solvent: 10 parts by weight of N,N-dimethylacetamide
as §2, §1
as §3, with “Puccinia recondite” for “Leptosphaeria nodorum.”, “hours. The plants” for “hours and”, “the” for “the formulation of the”, “compound formulation” for “compound”
The plants are placed in a greenhouse at a temperature of about 20° C. and a relative atmospheric humidity of about 80% in order to promote the development of rust pustules.
as §4

| Compound | chromatographic logP [1] | degree of action [2] | degree of action [3] | degree of action [4] | degree of action [5] | degree of action [6] | degree of action [7] | degree of action [8] |
| --- | --- | --- | --- | --- | --- | --- | --- | --- |
| CON=C(C1=NOCCO1)c1ccccc1CSC(=Nc1ccc(OC)cc1)C1CC1 [Example 2] | 3.16 | ≥ 70% | – | – | – | – | – | – |
| CON=C(C1=NOCCO1)c1ccccc1CSC(=Nc1ccccc1C(F)(F)F)C1CC1 [Example 3] | 4.16 | – | – | – | – | – | – | – |
| CON=C(C1=NOCCO1)c1ccccc1CSC(=Nc1ccc(OC)nc1)C1CC1 [Example 1] | 3.04 | ≥ 70% | ≥ 90% | ≥ 90% | ≥ 95% | ≥ 90% | ≥ 90% | ≥ 100% |
